Data published in patent publication US6927213B2, “Cationic cholesteryl derivatives containing cyclic polar groups” (University of Pittsburgh, priority 1996, dated 2005).
Entries after “also recorded” stand apart in the source; their conditions may differ. Read-outs that look alike come from different tables or passages of the source.

Columns and labels:
CHO cells [1] = test: Transfection of CHO cells with pCMV-Luc DNA:lipid complexes, luciferase activity; format: cell-based, Chinese Hamster; conditions: for luciferase activity (transfection activity): 1 μg pCMV-Luc DNA, liposomes DOPE:cationic lipid 1:1 mol:mol, absence of serum, 36 hours after transfection
CHO cells [2] = system: CHO cells
293 cells = test: Transfection of 293 cells with pCMV-Luc DNA:lipid complexes, luciferase activity; format: cell-based, human; conditions: DOPE:lipid 1:1 mol:mol, FIG. 7
Protocol: (§1) 2 μmol of Lipid dissolved in chloroform was transferred to a test tube. A solution of DOPE (2 umol) in chloroform was then added to this test tube. The chloroform was evaporated by passing a stream of nitrogen through the test tube to obtain a thin film of at the bottom of the test tube. Further drying was done in a desiccator under high vacuum for 30 minutes. 2 ml of distilled water was then added to the test tubes. The test tubes were stoppered and vortexed for one minute followed by sonication until the size of the particles was between 100 to 200 nm. The size of the particles was measured by Coulter particle size analyzer.
(§2) CHO, 293 and BL6 cells were obtained from the American Type Culture Collection (ATCC). Chinese Hamster Ovarian (“CHO”) cells were maintained in F-12 nutrient medium supplemented with 10% fetal bovine serum, antibiotics (1% penicillin-streptomycin) and 1% glutamine; human embryonic kidney 293 cells and murine melanoma BL6 cells were cultured in DMEM medium supplemented with 10% fetal bovine serum, antibiotics (1% penicillin-streptomycin) and 1% glutamine. […]
(§3) Luciferase activity was assayed by measuring the luminescence obtained after adding the substrate (Promega) to in aliquot of lysate. This luminescence was measured in a luminometer for 25 seconds.

BL6 cells [3] = test: Toxicity of lipids: protein per well 36 hours after transfection, BL6 cells; format: cell-based, murine; conditions: DOPE:lipid 1:1, FIG. 10
Protocol: Toxicity was assayed by measuring the amount of protein remaining in each well 36 hours after treatment with the indicated amount of liposome.
The toxicity of lipids was assayed by measuring the protein concentration in each well by Coomassie blue reagent (Píerce) 36 hours after transfection. Greater concentrations of protein per well indicated less toxicity of the tested lipids.
FIGS. 9 and 10 show the toxicity of lipid 5 compared to that of DC-Chol in CHO and BL6 cells respectively, where toxicity was assessed by measuring the amount of protein in each well after transfection of cells with DNA:lipid complexes formulated by mixing DNA and liposomes containing DOPE and DC-Chol or DOPE and lipids.

Siha = test: Transfection of Siha cells; format: cell-based; conditions: data not shown
Protocol: (§4) Lipid 5 was further compared with DC-Chol by transfecting BL6 cells with lipid 5- or DC-Chol-containing DNA:lipid complexes (FIGS. 7 and 8 respectively). […] Lipid 5 was also tested in several cell lines including HeLa, Siha and Caski which are somewhat difficult to transfect when compared with CHO or 293 cells.

HeLa = test: Transfection of HeLa cells; format: cell-based; conditions: data not shown
Protocol: as §4

Caski = test: Transfection of Caski cells; format: cell-based; conditions: data not shown
Protocol: as §4

Mice = test: In vivo transfection with pCMV-Luc DNA:lipid complexes; conditions: intratumoral or intravenous, 30 μg pCMV-Luc DNA with 30 nmols liposomal lipid (1:1 lipid 5:DOPE), 1-5 days
Protocol: Mice are injected intratumorally or intravenously with 50 μl of solution containing pCMV-Luc DNA (30 μg) complexed with 30 nmols of liposomal lipid (1:1 mol/mol lipid 5:DOPE). Animals are sacrificed 1-5 days later and extracts from tumor tissue (intratumor injection) or lung, liver and blood (intravenous injection) are assayed for luciferase activity and protein levels.

[4] = Stability of liposomes, retention of diameter over time; format: physicochemical; conditions: all lipid 5:DOPE ratios shown in FIG. 11
Protocol: as §1
The X axis of FIG. 11 refers to the total liposomal lipid mixed with 1 μg pCMV-Luc DNA:lipid complexes.

CHO cells [5] = test: Toxicity of lipids: protein per well 36 hours after transfection, CHO cells
CHO cells [6] = test: Serum sensitivity of transfection of CHO cells; format: cell-based, Chinese Hamster; conditions: 1 μg DNA, 10% serum
BL6 cells [7] = test: Transfection of BL6 cells with pCMV-Luc DNA:lipid complexes, luciferase activity; format: cell-based, murine; conditions: DOPE:lipid 1:1 mol:mol, FIG. 8
Protocol: as §1, §2, §3

Compound: CC(C)CCC[C@@H](C)[C@H]1CC[C@H]2[C@@H]3CC=C4C[C@@H](OC(=O)NCCN5CCCC5)CC[C@]4(C)[C@H]3CC[C@]12C [lipid 6, {N-2-ethylamino[(3′-β-cholesteryl)carbamoyl]}pyrrolidine]
- luciferase activity (transfection activity) (CHO cells [1]): less active than DC-Chol
- toxicity relative to DC-Chol (CHO cells [2]): less toxic than DC-Chol

Compound: CC(C)CCC[C@@H](C)[C@H]1CC[C@H]2[C@@H]3CC=C4C[C@@H](OC(=O)NN5CCN(C)CC5)CC[C@]4(C)[C@H]3CC[C@]12C [lipid 5, N-methyl{4-N-amino[(3′-β-cholesteryl)carbamoyl]}piperazine]
- luciferase activity (transfection activity) (CHO cells [1]): lipid 5>DC-Chol>lipid 4; also recorded: high activity
- transfection activity (luciferase) (CHO cells [1]; lipid 5:DOPE ratio of 2:8, FIG. 11): less activity
- transfection activity (luciferase) (CHO cells [1]; lipid 5:DOPE ratio of 4:6, FIG. 11): very similar transfection activities
- transfection activity (luciferase) (CHO cells [1]; lipid 5:DOPE ratio of 5:5, FIG. 11): very similar transfection activities
- transfection activity (luciferase) (CHO cells [1]; lipid 5:DOPE ratio of 6:4, FIG. 11): highest activity among all complexes
- transfection activity (luciferase) (CHO cells [1]; lipid 5:DOPE ratio of 8:2, FIG. 11): less activity
- luciferase activity (transfection activity) (293 cells): almost equally as active as DC-Chol
- toxicity: amount of protein in each well after transfection (BL6 cells [3]): more protein than cells transfected with DC-Chol-containing complex
- appearance of transfected cells observed under microscope (CHO cells [2]): healthy
- ability to transfect cells (Siha): slightly better than DC-Chol
- ability to transfect cells (HeLa): slightly better than DC-Chol
- ability to transfect cells (Caski): slightly better than DC-Chol
- in vivo transfection activity (luciferase in tissue extracts) (Mice): exhibit in vivo transfection activity
- liposome stability (retention of diameter over time) [4]: stable liposomes
- toxicity relative to DC-Chol (CHO cells [5]): reduced toxicity
- toxicity: amount of protein in each well after transfection (CHO cells [5]; CHO cells, DOPE:lipid 1:1, 36 hours, FIG. 9): more protein than cells transfected with DC-Chol-containing complex
- activity retained relative to the 0% serum complexes (CHO cells [6]; 5 nmol lipid 5 (1:1 with DOPE)): approximately 40%
- activity retained relative to the 0% serum complexes (CHO cells [6]; 10 nmol lipid 5 (1:1 with DOPE)): approximately 40%
- activity retained relative to the 0% serum complexes (CHO cells [6]; 20 nmol lipid 5 (1:1 with DOPE)): 10%
- luciferase activity (transfection activity) (BL6 cells [7]): almost equally as active as DC-Chol

Compound: (imidazole) propyl carbamoyl cholesteryl [lipid IM]
- luciferase activity (transfection activity) (CHO cells [1]): slightly less active than DC-Chol

Compound: CC(C)CCC[C@@H](C)[C@H]1CC[C@H]2[C@@H]3CC=C4C[C@@H](OC(=O)NCCN(C)C)CC[C@]4(C)[C@H]3CC[C@]12C [DC-Chol, 3β [N-(N′,N′-dimethylaminoethane)carbamoyl] cholesterol, reference compound]
- luciferase activity (transfection activity) (CHO cells [1]): lipid 5>DC-Chol>lipid 4
- appearance of transfected cells observed under microscope (CHO cells [5]; cell line (CHO or BL6) not specified, data not shown): some necrosis

Compound: CC(C)CCC[C@@H](C)[C@H]1CC[C@H]2[C@@H]3CC=C4C[C@@H](OC(=O)NCCN5CCCCC5)CC[C@]4(C)[C@H]3CC[C@]12C [lipid 7, {N-2-ethylamino[(3′-β-cholesteryl)carbamoyl]}piperidine]
- luciferase activity (transfection activity) (CHO cells [1]): less active than DC-Chol
- toxicity relative to DC-Chol (CHO cells [2]): less toxic than DC-Chol

Compound: pyridyl (ethyl) carbamoyl cholesteryl [lipid PY]
- luciferase activity (transfection activity) (CHO cells [1]): much less active
- toxicity relative to DC-Chol (CHO cells [5]): comparable toxicity to DC-Chol

Compound: CC(C)CCC[C@@H](C)[C@H]1CC[C@H]2[C@@H]3CC=C4C[C@@H](OC(=O)NCCN5CCOCC5)CC[C@]4(C)[C@H]3CC[C@]12C [lipid 3, {N-2-ethylamino[(3′-β-cholesteryl)carbamoyl]}morpholine]
- luciferase activity (transfection activity) (CHO cells [1]): low activity

Compound: CC(C)CCC[C@@H](C)[C@H]1CC[C@H]2[C@@H]3CC=C4C[C@@H](OC(=O)NCCCN5CCOCC5)CC[C@]4(C)[C@H]3CC[C@]12C [lipid 4]
- luciferase activity (transfection activity) (CHO cells [1]): lipid 5>DC-Chol>lipid 4; also recorded: reasonable activity

Compound: CC(C)CCC[C@@H](C)[C@H]1CC[C@H]2[C@@H]3CC=C4C[C@@H](OC(=O)NCCN5CCNCC5)CC[C@]4(C)[C@H]3CC[C@]12C [lipid 2, 4{N-2-ethylamino[(3′-β-cholesteryl)carbamoyl]}piperazine]
- luciferase activity (transfection activity) (CHO cells [1]): low activity
